Laboratory results as given in US20090124672A1 (priority 2007, published 2009).
pIC50: −log10 of the molar value.

Key:
[1] = molecular target: T1, hALDH2 (recombinant human mitochondria ALDH) (Homo sapiens, UniProt P05091); test: ALDH2 inhibition assay (NADH formation, formaldehyde substrate); format: biochemical; details: for inhibition at 1 µM: read-out: hALDH2 inhibition (IC50 hALDH2 column)
T1 sequence (P05091 18-517): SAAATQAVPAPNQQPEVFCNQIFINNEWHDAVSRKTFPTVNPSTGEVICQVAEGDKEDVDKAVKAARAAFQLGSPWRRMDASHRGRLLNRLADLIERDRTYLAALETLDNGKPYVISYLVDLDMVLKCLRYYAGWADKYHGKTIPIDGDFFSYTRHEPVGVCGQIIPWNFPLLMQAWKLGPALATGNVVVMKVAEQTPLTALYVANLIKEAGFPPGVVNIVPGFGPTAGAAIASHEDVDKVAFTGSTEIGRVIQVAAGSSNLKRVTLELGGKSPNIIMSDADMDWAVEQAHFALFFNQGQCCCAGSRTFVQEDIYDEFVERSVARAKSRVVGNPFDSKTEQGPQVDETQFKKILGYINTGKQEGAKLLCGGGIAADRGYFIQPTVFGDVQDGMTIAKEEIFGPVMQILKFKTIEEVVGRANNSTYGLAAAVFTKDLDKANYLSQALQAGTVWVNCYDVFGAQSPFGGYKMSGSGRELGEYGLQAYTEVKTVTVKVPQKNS
How it was run: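 1 nM enzyme in 50 mM sodium phosphate pH 7.4 with 1.2 mM NAD+ and compound at 0.03–1000 nM; reaction started with 0.15 mM formaldehyde at 25 °C. NADH formation followed by fluorescence (ex 340/em 460 nm). IC50 from sigmoidal fits with floating Hill slope; apparent Ki from Morrison equation if tight binding.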

[2] = molecular target: T2, hMAO-B (Homo sapiens, UniProt P27338); test: MAO-B inhibition assay (Amplex Red, horseradish peroxidase-coupled); format: biochemical; details: for inhibition at 10 µM: read-out: hMAO-B inhibition (IC50 hMAO-B)
T2 construct: purchased Sigma M7441
T2 sequence (P27338 1-520): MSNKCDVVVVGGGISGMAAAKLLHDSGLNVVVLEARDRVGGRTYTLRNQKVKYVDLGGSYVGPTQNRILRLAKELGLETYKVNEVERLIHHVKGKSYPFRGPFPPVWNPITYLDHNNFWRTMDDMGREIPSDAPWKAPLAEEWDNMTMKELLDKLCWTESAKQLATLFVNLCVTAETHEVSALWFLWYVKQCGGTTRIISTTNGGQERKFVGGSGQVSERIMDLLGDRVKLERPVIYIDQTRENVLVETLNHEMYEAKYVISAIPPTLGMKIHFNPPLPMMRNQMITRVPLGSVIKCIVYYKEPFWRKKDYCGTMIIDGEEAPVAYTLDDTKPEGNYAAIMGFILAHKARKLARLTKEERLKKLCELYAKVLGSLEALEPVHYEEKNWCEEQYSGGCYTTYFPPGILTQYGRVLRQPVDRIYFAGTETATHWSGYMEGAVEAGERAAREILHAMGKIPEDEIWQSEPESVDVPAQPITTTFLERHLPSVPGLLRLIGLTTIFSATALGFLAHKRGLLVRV
Procedure: MAO-A (Sigma M7316) and MAO-B (Sigma M7441) inhibition assays were conducted in 96-well micro-plates according to the method described by Zhou et al. [Analytical Biochemistry 253, 169-174, 1997]. Both assays were performed in potassium phosphate buffer (0.1 M, pH 7.5) containing 0.5 mM tyramine (Sigma T2879), 0.12 mM N-acetyl-3,7-dihydrophenoxazine (Amplex Red, Invitrogen A12222), 1.2 unit/ml horseradish peroxidase (Sigma P2088), 0.6 unit/ml MAO-A or 2.5 unit/ml MAO-B, and various concentrations of test compounds (0.1 nM to 10 uM). Reactions were initiated by the addition of a pre-mixed solution of tyramine, horseradish peroxidase and Amplex Red, and were allowed to proceed at 37° C. for 30 min. Enzyme activities were determined by measuring absorbance at 570 nm (SpectralMax Plate reader), absorbance of oxidized Amplex Red generated by this horseradish peroxidase-coupled reaction. Nonspecifically formed products were determined in the presence of 2 and 10 µM clorgyline and deprenyl for MAO-A and MAO-B, respectively. IC50 values were determined by fitting concentration-inhibition data to sigmoidal dose-response curves with two-floating parameters: IC50 and Hill coefficient.

Row | Structure (SMILES) | pIC50 [1] | inhibition at 10 µM ([2]; at 10 μM) | hMAO-B inhibition (IC50 hMAO-B) ([2]; at 10 μM) | inhibition at 1 µM [1] | pIC50 [2]
1 | O=c1c(-c2ccc(O)cc2)coc2cc(OCc3nnc(-c4ccc(F)cc4)o3)ccc12 [PT-81, 7-{[5-(4-fluorophenyl)(1,3,4-oxadiazol-2-yl)]methoxy}-3-(4-hydroxyphenyl)chromen-4-one] | 9.40 | 12% | – | – | –
2 | O=c1c(-c2ccc(O)cc2)coc2cc(OC[C@H](O)Cc3ccccc3)ccc12 [PT-109, 7-((2R)-2-hydroxy-3-phenylpropoxy)-3-(4-hydroxyphenyl)chromen-4-one] | 7.85 | 26% | – | – | –
3 | O=c1c(-c2ccc(O)cc2)coc2cc(OCCOc3ccc(Cl)cc3)ccc12 [PT-89, 7-[2-(4-chlorophenoxy)ethoxy]-3-(4-hydroxyphenyl)chromen-4-one] | 7.66 | 32% | – | – | –
4 | C[C@H](NC(=O)COc1ccc2c(=O)c(-c3ccc(O)cc3)coc2c1)c1ccc(F)cc1 [PT-103, N-[(1S)-1-(4-fluorophenyl)ethyl]-2-[3-(4-hydroxyphenyl)-4-oxochromen-7-yloxy]acetamide] | 8.10 | 29% | – | – | –
5 | O=c1c(-c2ccc(O)cc2)coc2cc(OCc3ccncc3)ccc12 [PT-82, 3-(4-hydroxyphenyl)-7-(4-pyridylmethoxy)chromen-4-one] | 8.30 | 15% | – | – | –
6 | O=c1c(-c2ccc(O)cc2)coc2cc(OCc3cc(-c4cccc(C(F)(F)F)c4)on3)ccc12 [PT-45, 3-(4-hydroxyphenyl)-7-({5-[3-(trifluoromethyl)phenyl]isoxazol-3-yl}methoxy)chromen-4-one] | 7.01 | 7% | 7% | – | –
7 | CS(=O)(=O)Nc1ccc(-c2c(O)oc3cc(OCc4cccc(C(=O)O)c4)ccc3c2=O)cc1 [PT-111, 3-[(2-hydroxy-3-{4-[(methylsulfonyl)amino]phenyl}-4-oxochromen-7-yloxy)methyl]-benzoic acid] | 8.52 | 30% | – | – | –
8 | O=c1c(-c2ccc(O)cc2)coc2cc(OCc3ccccn3)ccc12 [PT-91, 3-(4-hydroxyphenyl)-7-(2-pyridylmethoxy)chromen-4-one] | 8.15 | 11% | – | – | –
9 | C[C@@H](NCC(=O)COc1ccc2c(=O)c(-c3ccc(O)cc3)coc2c1)c1ccc(F)cc1 [PT-56, 7-(3-{[(1R)-1-(4-fluorophenyl)ethyl]amino}-2-oxopropoxy)-3-(4-hydroxyphenyl)chromen-4-one] | 8.10 | 29% | – | – | –
10 | CS(=O)(=O)Nc1ccc(-c2coc3cc(OCc4noc(-c5cc(F)cc(C(F)(F)F)c5)n4)ccc3c2=O)cc1 [PT-70, 7-({5-[3-fluoro-5-(trifluoromethyl)phenyl](1,2,4-oxadiazol-3-yl)}methoxy)-3-{4-[(methylsulfonyl)amino]phenyl}chromen-4-one] | – | 11% | – | 20% | –
11 | COC(=O)c1cnc(COc2ccc3c(=O)c(-c4ccc(O)cc4)coc3c2)o1 [PT-47, methyl 2-{[3-(4-hydroxyphenyl)-4-oxochromen-7-yloxy]methyl}-1,3-oxazole-5-carboxylate] | 8.30 | 34% | – | – | –
12 | COC(=O)c1cccc(COc2ccc3c(=O)c(-c4ccc(O)cc4)coc3c2)c1 [PT-33, methyl 3-{[3-(4-hydroxyphenyl)-4-oxochromen-7-yloxy]methyl}benzoate] | 6.82 | – | – | – | 6.52
13 | CC(=O)c1cccc(-c2coc3cc(OCc4noc(-c5cc(F)cc(C(F)(F)F)c5)n4)ccc3c2=O)c1 [PT-73, 3-(3-acetylphenyl)-7-({5-[3-fluoro-5-(trifluoromethyl)phenyl](1,2,4-oxadiazol-3-yl)}methoxy)chromen-4-one] | – | 10% | – | 18% | –
14 | O=c1c(-c2ccc(O)cc2)coc2cc(OCc3nnc(-c4ccccc4Cl)s3)ccc12 [PT-64, 7-{[5-(2-chlorophenyl)(1,3,4-thiadiazol-2-yl)]methoxy}-3-(4-hydroxyphenyl)chromen-4-one] | – | 8% | – | 43% | –
